Test results reported in patent US11801256B2, “Antidepressant-psilocybin co-treatment to assist psychotherapy” (Universitätsspital Basel, priority 2021, dated 2023).

Key:
healthy subjects [1] = assay: Autonomic measures (blood pressure, heart rate, body temperature, pupil size)
Protocol: Study design: A double-blind, cross-over design was used with two conditions. […] 2) Pretreatment with placebo for 14 days with the last administration on the study day and administration of 25 mg psilocybin 2 hours later. Treatment order was random and counterbalanced. Between the 14 days pretreatment and the study day, there were at least 2 days washout until the next pretreatment phase began.
Autonomic measures: Blood pressure, heart rate, and body temperature were recorded at baseline and repeatedly throughout the session. Blood pressure (systolic and diastolic) and heart rate were measured with an automatic oscillometric device. Body temperature was measured with an ear thermometer as previously described in detail (Hysek et al., 2010). Measures were taken before and at 0, 0.25, 0.5, 0.75, 1, 1.5, 2, 2.5, 3, 4, 5, 6 and 7 hours after psilocybin administration.
Data analysis: Peak (Emax and/or Emin) or peak change from baseline (ΔEmax) values were determined for repeated measures. The values were then analyzed using paired T-tests using Statistica 12 software (StatSoft, Tulsa, OK, USA). The criterion for significance was p<0.05.

BDNF = assay: Plasma BDNF levels (ELISA); assay type: in vivo, human; conditions: escitalopram 14 days pretreatment vs placebo
Protocol: Psychedelics can induce neuroregeneration (Ly et al., 2018). Plasma BDNF levels are a possible biomarker for neurogenesis (Haile et al., 2014). Psychedelics increase BDNF (Holze et al., 2021; Hutten et al., 2020) and higher BDNF levels were associated with lower depression ratings after administration of psychedelics (de Almeida et al., 2019). Plasma BDNF levels were measured at baseline and 4 and 7 hours after drug administration using the Biosensis Mature BDNF Rapid ELISA Kit (Thebarton, Australia) (Akimoto et al., 2019).

healthy subjects [2] = assay: QTc time; assay type: in vivo, human; conditions: escitalopram pretreatment compared with placebo
Text: Exclusion criteria: Chronic or acute medical condition, including a history of seizures. Current or previous major psychiatric disorder (e.g. psychotic disorders, mania/hypomania, anxiety disorders, and substance abuse). Psychotic disorder in first-degree relatives, not including psychotic disorders secondary to an apparent medical reason, e.g. brain injury, dementia, or lesions of the brain. Illicit substance use (with the exception of cannabis) more than 10 times or any time within the previous two months. History of an angle closure glaucoma. Pregnant or nursing women. Participation in another clinical trial (currently or within the last 30 days). […] A corrected QT time (QTc), calculated by Bazett's formula, of over 450 milliseconds in males and over 470 milliseconds in females. Tobacco smoking (>10 cigarettes/day). Consumption of alcoholic drinks (>10 drinks/week). Bodyweight <45 kg.

2D6 = 2D6 (Homo sapiens, UniProt P10635); conditions: FDA, 2017; Swissmedic, 2020; cited from earlier work
Sequence of 2D6 (P10635 whole entry): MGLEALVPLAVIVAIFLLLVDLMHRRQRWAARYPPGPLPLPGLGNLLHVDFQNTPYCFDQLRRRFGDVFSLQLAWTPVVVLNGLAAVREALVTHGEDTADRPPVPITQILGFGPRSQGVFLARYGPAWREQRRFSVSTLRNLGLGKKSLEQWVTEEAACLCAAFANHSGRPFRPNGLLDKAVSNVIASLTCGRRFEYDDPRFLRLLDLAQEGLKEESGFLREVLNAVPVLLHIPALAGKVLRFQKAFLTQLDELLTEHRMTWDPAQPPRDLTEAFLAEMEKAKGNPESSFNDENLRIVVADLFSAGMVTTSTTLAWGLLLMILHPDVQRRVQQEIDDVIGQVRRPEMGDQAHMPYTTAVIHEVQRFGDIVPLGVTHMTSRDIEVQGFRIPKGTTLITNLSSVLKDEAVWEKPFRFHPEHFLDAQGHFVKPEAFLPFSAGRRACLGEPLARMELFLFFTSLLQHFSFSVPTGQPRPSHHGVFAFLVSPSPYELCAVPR

## CN(C)CCC[C@@]1(c2ccc(F)cc2)OCc2cc(C#N)ccc21 [Escitalopram, escitalopram]
Healthy subjects [1]; escitalopram 14 days pretreatment vs placebo, P<0.001
  effect on psilocybin-induced elevations in peak systolic blood pressure: reduced
Healthy subjects [1]; escitalopram 14 days pretreatment vs placebo, P=0.001
  effect on psilocybin-induced elevations in rate pressure product: reduced
Healthy subjects [1]; escitalopram 14 days pretreatment vs placebo, P=0.002
  effect on psilocybin-induced pupil dilation: reduced
Healthy subjects [1]; escitalopram 14 days pretreatment vs placebo, P=0.017
  effect on psilocybin-induced elevations in peak diastolic blood pressure: reduced
Healthy subjects [1]; escitalopram pretreatment compared to psilocybin alone (summary)
  effect on psilocybin-induced cardio-stimulant effects: reduced
Healthy subjects [1]; escitalopram pretreatment compared with placebo pretreatment (summary)
  effect on adverse autonomic effects of psilocybin: significantly reduced
BDNF
  effect on the psilocybin-induced moderate increase in BDNF: did not significantly alter
Healthy subjects [2]
  QTc time before or after psilocybin administration: did not alter
2D6
  inhibition of 2D6 function: slightly inhibits
